Assay results reported in patent publication US20210221848A1, “POLYMYXIN DERIVATIVES AND THEIR USE IN COMBINATION THERAPY TOGETHER WITH DIFFERENT ANTIBIOTICS” (priority 2014, published 2021).
Where two headings read alike, the source gives them in different places.

Key:
E. coli [1] = assay: MIC in the presence of a fixed concentration (2 μg/mL) of Rifampicin; type: cell-based, Escherichia coli; conditions: Rifampicin 2 μg/mL, Table 5C
K. pneumoniae [2] = assay: as above; type: cell-based, Klebsiella pneumoniae; conditions: Rifampicin 2 μg/mL, Table 5C
A. baumannii [3] = assay: MIC in the presence of […] of rifampicin; type: cell-based, Acinetobacter baumannii; conditions: A. baumannii ATCC BAA-747, Table 5C
E. coli [4] = assay: MIC in 1:1 (wt:wt) combination with Rifampicin; type: cell-based, Escherichia coli; conditions: 1:1 (wt:wt) with Rifampicin, total drug concentration
Description: (§1) The inoculum was prepared by making a direct suspension of isolated colonies (selected from an 18-24 hour Mueller-Hinton agar plate) adjusted to the 0.5 McFarland standard. […] The assays were performed in duplicate. […] In cases where the duplicate values varied by less than 2-fold, the lower of the two values is reported. If a variation of greater than 2-fold was observed, the assay was considered non-valid. Several of the compounds were subjected to multiple tests, and where this is the case, the MIC reflects the modal value obtained.
(§2) MIC values (microgram/mL) refer to the total drug concentration (i.e. test agent plus Rifampicin).

K. pneumoniae [5] = assay: MIC in 1:1 (wt:wt) combination with Rifampicin; type: cell-based, Klebsiella pneumoniae; conditions: 1:1 (wt:wt) with Rifampicin, total drug concentration
Description: as §1, §2

P. aeruginosa [6] = assay: MIC in 1:1 (wt:wt) combination with Rifampicin; type: cell-based, Pseudomonas aeruginosa; conditions: 1:1 (wt:wt) with Rifampicin, total drug concentration
Description: as §1, §2

A. baumannii [7] = assay: MIC in 1:1 (wt:wt) combination with Rifampicin; type: cell-based, Acinetobacter baumannii; conditions: 1:1 (wt:wt) with Rifampicin, total drug concentration
Description: as §1, §2

HK-2 cell line = assay: In vitro renal cell toxicity assay (resazurin reduction); conditions: HK-2 cell IC50 expressed relative to the value for polymyxin B
Description: MICs were determined as described herein. HK-2 cell IC50 values were determined as described herein. Values are reported relative to Polymyxin B.

[8] = system: Acinetobacter baumannii NCTC 13301; conditions: mouse lungs, A. baumannii NCTC 13301, SC at 2, 6 and 10 h post-infection, 16 h infection model
Description: On Day 0, animals were infected with 0.04 mL inoculum by intranasal instillation into mouse nostrils and were kept in an upright position on a string rack for ˜10 min post-infection. […] The vehicle control group (7 mice) was treated with 0.9% saline for injection at 2, 6 and 10 h post-infection.
Sixteen hours after infection, the mice were euthanized humanely. The lungs of each animal were harvested, homogenized and quantitatively cultured onto CLED agar for CFU determination. Decrease of the total CFU compared to control counts at 16 h post-infection was determined for each dose group.

[9] = system: Pseudomonas aeruginosa ATCC 27853; type: in vivo; conditions: mouse lungs, P. aeruginosa ATCC 27853, SC at 2, 6 and 10 h post-infection, 16 h infection model
K. pneumoniae [10] = system: K. pneumoniae
P. aeruginosa [11] = system: P. aeruginosa
A. baumannii [12] = system: A. baumannii
[13] = system: Escherichia coli ATCC 25922; conditions: mouse thigh, 3.4 mg/kg/dose free base IV at 1, 3.5 and 6 h post-infection, 9 h model
[14] = system: Acinetobacter baumannii NCTC 13301; conditions: mouse thigh, 16 h model

## Polymyxin B [PMB, reference compound]
E. coli [1]; E. coli ATCC 25922
  MIC in combination with Rifampicin, E. coli ATCC 25922: ≤0.015 micrograms/mL
E. coli [1]; E. coli NCTC 13441
  MIC in combination with Rifampicin, E. coli NCTC 13441: 0.03 micrograms/mL
K. pneumoniae [2]; K. pneumoniae ATCC 4352
  MIC in combination with Rifampicin, K. pneumoniae ATCC 4352: 0.06 micrograms/mL
K. pneumoniae [2]; K. pneumoniae ATCC BAA-2146
  MIC in combination with Rifampicin, K. pneumoniae ATCC BAA-2146: 0.25 micrograms/mL
A. baumannii [3]
  MIC in combination with Rifampicin, A. baumannii ATCC BAA-747: 0.03 micrograms/mL
E. coli [4]; E. coli 058
  MIC in 1:1 combination with rifampicin, E. coli 058: 1 microgram/mL
E. coli [4]; E. coli 059
  MIC in 1:1 combination with rifampicin, E. coli 059: ≤0.5 microgram/mL
E. coli [4]; E. coli 060
  MIC in 1:1 combination with rifampicin, E. coli 060: 1 microgram/mL
E. coli [4]; E. coli ATCC 25922
  MIC in 1:1 combination with rifampicin, E. coli ATCC 25922: ≤0.5 microgram/mL
K. pneumoniae [5]; K. pneumoniae 062
  MIC in 1:1 combination with rifampicin, K. pneumoniae 062: 1 microgram/mL
K. pneumoniae [5]; K. pneumoniae CCUG 59348
  MIC in 1:1 combination with rifampicin, K. pneumoniae CCUG 59348: 1 microgram/mL
P. aeruginosa [6]; P. aeruginosa 063
  MIC in 1:1 combination with rifampicin, P. aeruginosa 063: 16 microgram/mL
P. aeruginosa [6]; P. aeruginosa 068
  MIC in 1:1 combination with rifampicin, P. aeruginosa 068: 1 microgram/mL
A. baumannii [7]; A. baumannii 053
  MIC in 1:1 combination with rifampicin, A. baumannii 053: ≤0.5 microgram/mL
A. baumannii [7]; A. baumannii 056
  MIC in 1:1 combination with rifampicin, A. baumannii 056: ≤0.5 microgram/mL
HK-2 cell line
  HK-2 rel to PMB: 1
[8]; 2.6 mg/kg/dose free base
  Mean log10 CFU reduction vs. control: 0.79 log10 CFU
[8]; 8.6 mg/kg/dose free base
  Mean log10 CFU reduction vs. control: 0.58 log10 CFU
[8]; 17.2 mg/kg/dose free base
  Mean log10 CFU reduction vs. control: 0.54 log10 CFU
[8]; 25.8 mg/kg/dose free base
  Mean log10 CFU reduction vs. control: 1.10 log10 CFU
[9]; 8.6 mg/kg/dose free base
  Mean log10 CFU reduction vs. control: 1.46 log10 CFU
[9]; 17.2 mg/kg/dose free base
  Mean log10 CFU reduction vs. control: 2.87 log10 CFU
K. pneumoniae [10]; K. pneumoniae ATCC 4352
  MIC: 0.25 µg/mL
K. pneumoniae [10]; K. pneumoniae ATCC 4352, absence of a second agent, Table 6B
  MIC, K. pneumoniae ATCC 4352: 0.25 micrograms/mL
K. pneumoniae [10]; K. pneumoniae ATCC BAA-2146
  MIC: 0.5 µg/mL
K. pneumoniae [10]; K. pneumoniae ATCC BAA-2146, absence of a second agent, Table 6B
  MIC, K. pneumoniae ATCC BAA-2146: 0.5 micrograms/mL
K. pneumoniae [10]; strain ATCC 4352, compound alone
  MIC, K. pneumoniae ATCC 4352: 0.25 micrograms/mL
K. pneumoniae [10]; strain ATCC BAA-2146, compound alone
  MIC, K. pneumoniae ATCC BAA-2146: 0.5 micrograms/mL
P. aeruginosa [11]; P. aeruginosa ATCC 27853
  MIC: 0.5 µg/mL
P. aeruginosa [11]; P. aeruginosa ATCC 27853, absence of a second agent, Table 6B
  MIC, P. aeruginosa ATCC 27853: 0.5 micrograms/mL
P. aeruginosa [11]; P. aeruginosa CCUG 59347
  MIC: 0.5 µg/mL
P. aeruginosa [11]; P. aeruginosa CCUG 59347, absence of a second agent, Table 6B
  MIC, P. aeruginosa CCUG 59347: 0.5 micrograms/mL
P. aeruginosa [11]; strain ATCC 27853, compound alone
  MIC, P. aeruginosa ATCC 27853: 0.5 micrograms/mL
P. aeruginosa [11]; strain CCUG 59347, compound alone
  MIC, P. aeruginosa CCUG 59347: 0.5 micrograms/mL
A. baumannii [12]; A. baumannii ATCC BAA-747
  MIC: 0.25 µg/mL
A. baumannii [12]; A. baumannii ATCC BAA-747, absence of a second agent, Table 6B
  MIC, A. baumannii ATCC BAA-747: 0.25 micrograms/mL
A. baumannii [12]; A. baumannii NCTC 13424
  MIC: 0.5 µg/mL
A. baumannii [12]; A. baumannii NCTC 13424, absence of a second agent, Table 6B
  MIC, A. baumannii NCTC 13424: 0.5 micrograms/mL
A. baumannii [12]; strain ATCC BAA-747, compound alone
  MIC, A. baumannii ATCC BAA-747: 0.25 micrograms/mL
A. baumannii [12]; strain NCTC 13424, compound alone
  MIC, A. baumannii NCTC 13424: 0.5 micrograms/mL
[13]
  Mean log10 CFU reduction vs. control: 4.32 log10 CFU
[14]; 0.215 mg/kg/dose free base SC at 2, 6 and 10 h post-infection
  Mean log10 CFU reduction vs. control: 0.17 log10 CFU
[14]; 0.86 mg/kg/dose free base SC at 2, 6 and 10 h post-infection
  Mean log10 CFU reduction vs. control: 1.64 log10 CFU
[14]; 2.6 mg/kg/dose free base SC at 2, 6 and 10 h post-infection
  Mean log10 CFU reduction vs. control: 5.44 log10 CFU
[14]; 8.6 mg/kg/dose free base SC at 2, 6 and 10 h post-infection
  Mean log10 CFU reduction vs. control: 6.15 log10 CFU
[14]; 17.2 mg/kg/dose free base SC at 2, 6 and 10 h post-infection
  Mean log10 CFU reduction vs. control: 6.53 log10 CFU
